15 molecules from US10695322B2 (priority 2016, dated 2020) can be followed below.

Assay [1] concerns the target LdtMab1, wild-type (MAB_3165c, orthologue of LdtMt1) (Mycobacteroides abscessus, UniProt B1MDC1). The assay is described as follows: biochemical. Format: binding, Mycobacterium abscessus. To be noted: Figure 6; ITC, wt, protein 150 μM, ligand 2 mM, pH 8.0, 24° C.
Assay [2] deals with T1, LdtMt2, wild-type (L,D-transpeptidase of M. tuberculosis; fragment without N-terminal transmembrane domain, N-terminal His6, TEV-cleavable) (Mycobacterium tuberculosis, UniProt I6Y9J2).
T1 construct: Fragments excluding the putative transmembrane domain were cloned, expressed and purified; His6 (TEV-cleavable) (N); made in house; host or cells: E. coli BL21(DE3)
T1 sequence (I6Y9J2 56-408 limits assumed): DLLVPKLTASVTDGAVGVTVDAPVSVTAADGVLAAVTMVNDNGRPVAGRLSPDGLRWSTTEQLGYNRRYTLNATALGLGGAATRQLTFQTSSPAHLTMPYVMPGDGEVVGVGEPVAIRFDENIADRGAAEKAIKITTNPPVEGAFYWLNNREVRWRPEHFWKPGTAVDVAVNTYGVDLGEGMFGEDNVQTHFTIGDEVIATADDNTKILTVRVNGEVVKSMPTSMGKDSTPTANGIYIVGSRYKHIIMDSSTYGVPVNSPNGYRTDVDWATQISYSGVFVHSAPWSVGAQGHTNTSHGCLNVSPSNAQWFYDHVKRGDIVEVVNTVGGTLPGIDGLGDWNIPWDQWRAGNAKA
Nature of the assay: biochemical. Format: binding.

A further assay concerns LdtKp. The assay is described as follows: UPLC-MS analysis of protein-drug adducts, LdtKp. The format is binding, K. pneumoniae.
Assay [3] addresses T2, LdtMt2 (Mycobacterium tuberculosis, UniProt I6Y9J2). The assay is described as follows: biochemical. Also noted: species or system M. tuberculosis.
The target in assay [4] is LdtMab2 (Mycobacteroides abscessus, UniProt B1MMQ4). The assay is described as follows: Isothermal titration calorimetry, binding to LdtMab2. Also noted: species or system M. abscessus. Particulars: ITC, 24° C., tris pH 8.0.
Sequence of LdtMab2 (Mycobacteroides abscessus, UniProt B1MMQ4) (B1MMQ4 62-406 limits assumed): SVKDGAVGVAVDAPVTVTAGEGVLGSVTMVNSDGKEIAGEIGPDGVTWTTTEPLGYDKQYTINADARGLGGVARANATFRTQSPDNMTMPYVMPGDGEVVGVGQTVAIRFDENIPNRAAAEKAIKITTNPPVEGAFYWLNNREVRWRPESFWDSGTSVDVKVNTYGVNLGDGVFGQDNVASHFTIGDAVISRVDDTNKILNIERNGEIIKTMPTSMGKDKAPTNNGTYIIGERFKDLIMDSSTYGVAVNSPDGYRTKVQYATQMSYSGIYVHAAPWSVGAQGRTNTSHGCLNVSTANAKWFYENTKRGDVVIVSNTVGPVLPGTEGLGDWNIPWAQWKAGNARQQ
For a further assay, the system named is LdtPa. The assay is described as follows: UPLC-MS analysis of protein-drug adducts, LdtPa. Format: binding, P. aeruginosa.
For assay [5], the target named is T3, LdtMab1 (Mycobacteroides abscessus, UniProt B1MDC1). Nature of the assay: UPLC-MS analysis of protein-drug adducts, LdtMab1. Format: binding, M. abscessus.
T3 sequence (B1MDC1 entry or part of it): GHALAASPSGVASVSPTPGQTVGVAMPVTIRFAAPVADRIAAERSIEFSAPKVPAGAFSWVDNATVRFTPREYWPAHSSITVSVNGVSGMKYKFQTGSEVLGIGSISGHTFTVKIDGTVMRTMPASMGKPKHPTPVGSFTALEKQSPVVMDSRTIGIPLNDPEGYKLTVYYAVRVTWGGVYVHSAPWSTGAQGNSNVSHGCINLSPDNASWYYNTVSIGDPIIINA
Assay [6] addresses T2, LdtMt2. The format is binding, M. tuberculosis. To be noted: for Kd: 24° C., tris pH 8.0.
Assay [7] concerns LdtMab2. Nature of the assay: UPLC-MS analysis of protein-drug adducts, LdtMab2. Particulars: for reaction and covalent adduct formation: evolved carbapenem alone. The format is binding, M. abscessus.
For the next assay, the system named is LdtCl. The assay is described as follows: UPLC-MS analysis of protein-drug adducts, LdtCl. The format is binding, E. cloacae. To be noted: for reaction and covalent adduct formation: evolved carbapenem alone. The protocol:
Ultra-performance liquid chromatography-high resolution mass spectrometry (UPLC-MS) with a Waters Acquity H-Class system utilizing a Waters Acquity BEH-300 UPLC column packed with a C4 stationary phase (2.1×50 mm, 1.7 μm) in conjunction with HRMS analysis by a Waters Xero-G2 quadropole-TOF electrospray mass spectrometer was used to detect and analyze protein-drug adducts. Each enzyme (2 μM) in 25 mM Tris buffer, pH 8, was incubated in the absence or presence of drugs (50 μM) at room temperature for 5 hours. Trifluoroacetic acid (0.1% final) was used to quench the reactions, samples were filtered through a 0.22 um filter and analyzed using UPLC-MS as follows: Mobile phase: 0-1 min 90% water+10% ACN+0.1% formic acid, 1-7.5 min gradient up to 20% water+80% ACN+0.1% formic acid, 7.5-8.4 min 20% water+80% ACN+0.1% formic acid, 8.4-8.5 min gradient up to 90% water+10% ACN+0.1% formic acid, 8.5-10 min 90% water+10% ACN+0.1% formic acid. Flow rate=0.3 mL min^−1. T=60° C.

Assay [8] deals with T2, LdtMt2. The format is binding, M. tuberculosis.
The test system of assay [9] is M. tuberculosis, M. abscessus, A. baumannii, K. pneumoniae, E. cloacae, P. aeruginosa, E. faecalis and S. aureus. The assay is described as follows: Minimum inhibitory concentration (MIC90), broth dilution, panel of pathogens. Particulars: panel of tested pathogens. Format: cell-based. (In general: Broth dilution looks for growth in wells or tubes with falling amounts of substance.)

Assay [10] addresses T4, LdtMt1 (Mycobacterium tuberculosis, UniProt O53638). The assay is described as follows: biochemical. The format is binding, M. tuberculosis.
The target in assay [11] is T4, LdtMt1. Format: binding, M. tuberculosis.
In another assay the test system is M. tuberculosis. Format: in vivo, BALB/c mice.
In assay [12] the target is T3, LdtMab1. The assay is described as follows: Isothermal titration calorimetry, binding to LdtMab1. To be noted: ITC, 24° C., tris pH 8.0. Background: Isothermal titration calorimetry measures the heat released or taken up as one component is titrated into another.
The mark [13] stands for this setting: 10 μM LdtMt2, MES pH 6.5, 10° C.
The mark [14] stands for this setting: competition: equimolar mixture of doripenem, biapenem, faropenem and tebipenem, within one minute.
The mark [15] stands for this setting: equimolar mixture of amoxicillin, cephalothin, aztreonam and faropenem.

pKd: −log10 of the molar value. Like-named read-outs stand apart in the source and are kept apart here.

As a reminder, the pKd is −log10 of the Kd, conventionally taken in molar units. By kinact is commonly meant the rate constant of inactivation at saturating inhibitor.

T4 sequence (O53638 32-251 limits assumed): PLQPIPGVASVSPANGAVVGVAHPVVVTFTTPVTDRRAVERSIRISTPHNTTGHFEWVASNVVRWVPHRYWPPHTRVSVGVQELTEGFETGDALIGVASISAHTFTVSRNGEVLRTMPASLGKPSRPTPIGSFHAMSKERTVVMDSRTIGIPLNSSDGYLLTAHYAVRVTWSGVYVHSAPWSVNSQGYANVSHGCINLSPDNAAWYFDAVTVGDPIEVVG
T2 sequence (I6Y9J2 56-408 limits assumed): as the sequence (I6Y9J2 56-408 limits assumed) above
Sequence of LdtMab1, wild-type (MAB_3165c, orthologue of LdtMt1) (B1MDC1 21-248): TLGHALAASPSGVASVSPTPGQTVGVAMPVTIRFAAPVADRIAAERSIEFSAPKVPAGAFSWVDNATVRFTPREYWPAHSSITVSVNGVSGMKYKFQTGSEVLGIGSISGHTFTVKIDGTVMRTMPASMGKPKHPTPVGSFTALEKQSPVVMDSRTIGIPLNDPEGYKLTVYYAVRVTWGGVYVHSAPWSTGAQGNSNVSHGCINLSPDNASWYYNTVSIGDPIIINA

Turning to `CC(=O)OCC1=C(C(=O)O)N2C(=O)[C@@H](NC(=O)Cc3cccs3)[C@H]2SC1` [Cephalothin], the pKd in assay [1] was 4.52; in assay [2], 3.70.
As for `C[C@@H](O)[C@H]1C(=O)N2C(C(=O)O)=C(SCC(=O)OC3CCCCC3)[C@H](C)[C@H]12` [T208], the “reaction and covalent adduct formation” value with LdtKp was “reacted and formed covalent adducts”; with LdtPa, “reacted and formed covalent adducts”; on LdtMab1 [5] it was “reacted and formed covalent adducts”; in the assay with LdtMab2 [7], “did not react”; with LdtCl, “reacted and formed covalent adducts”. At LdtMt2 [3] (setting [13]), this molecule showed a Kapp of 4.8 ± 2.9 µM. In addition, on LdtMt2 [3] (10 μM LdtMt2, MES pH 6.5, 10° C., read-out: kinact (converted)), the kinact was 0.045 s⁻¹. For the same molecule, the Kd entry on LdtMab2 [4] and on LdtMt2 [6] (ITC) was “low to sub μM range” each time. For the same molecule, in assay [2], the pKd is 5.25.
For `C[C@@H](O)[C@H]1C(=O)N2C(C(=O)O)=C(S[C@@H]3CN[C@H](CNS(N)(=O)=O)C3)[C@H](C)[C@H]12` [doripenem], on LdtMt2 [3] (pH 6.5), the Kapp amounted to 32.6 ± 11.3 µM and the maximal inactivation rate constant (kinact) was 0.122 s⁻¹. The kinact/KI at LdtMt2 [3] (read-out: kinact/Kapp ratio) is 3670 M⁻¹ s⁻¹. For the same molecule, the “mass of stable adduct with wild-type LdtMt2” value on LdtMt2 [8] is 123 Da.
Take `CC1(C)S[C@@H]2[C@H](NC(=O)[C@H](N)c3ccc(O)cc3)C(=O)N2[C@H]1C(=O)O` [Amoxicillin]: the pKd in assay [1] was 2.89.
With `CCCOC(=O)CSC1=C(C(=O)O)N2C(=O)[C@H]([C@@H](C)O)[C@H]2[C@H]1C` [T206], the “reaction and covalent adduct formation” value is “reacted and formed covalent adducts” with LdtKp; “did not react” with LdtPa; “reacted and formed covalent adducts” on LdtMab1 [5]; “did not react” in the assay with LdtMab2 [7]; “reacted and formed covalent adducts” in the assay on LdtCl. Moreover, the Kd result at LdtMab2 [4] and at LdtMt2 [6] (ITC) was “low to sub μM range” in each case. Also, the pKd in assay [2] was 5.55.
For `C[C@@H](O)[C@H]1C(=O)N2C(C(=O)O)=C(SCCc3ccccc3)[C@H](C)[C@H]12` [T223], the “minimum inhibitory concentration (MIC90) / growth inhibition” value in [9] was “inhibit growth of all tested pathogens except P. aeruginosa”.
On the same count and under the same terms, to `C[C@@H](O)[C@H]1C(=O)N2C(C(=O)O)=C(Sc3c[nH]c4ccccc34)[C@H](C)[C@H]12` [T224] belongs “inhibit growth of all tested pathogens except P. aeruginosa”.
On to `CSC1=C(C(=O)O)N2C(=O)[C@H]([C@@H](C)O)[C@H]2[C@H]1C` [T210], for which the “reaction and covalent adduct formation” value in the assay on LdtKp is “reacted and formed covalent adducts”; with LdtPa, “reacted and formed covalent adducts”; at LdtMab1 [5], “reacted and formed covalent adducts”; in the assay on LdtMab2 [7], “did not react”; with LdtCl, “reacted and formed covalent adducts”. In addition, the Kapp at LdtMt2 [3] (setting [13]) was 20.8 ± 3.3 µM. Moreover, the Kd result at LdtMab2 [4] is “low to sub μM range”.
Turning to `CC(=O)OCC1=C(C(=O)O)N2C(=O)[C@@H](NC(=O)Cc3cccs3)[C@H]2SC1` [cephalothin], the heat of association entry on LdtMt1 [10] and at LdtMt2 [6] was “could not be detected” in each case.
Take `C[C@@H](O)[C@H]1C(=O)N2C(C(=O)O)=C(SCC(F)(F)F)[C@H](C)[C@H]12` [T221]: the “minimum inhibitory concentration (MIC90) / growth inhibition” value in assay [9] is given as “inhibit growth of all tested pathogens except P. aeruginosa”.
For the molecule `CC1(C)S[C@@H]2[C@H](NC(=O)[C@H](N)c3ccc(O)cc3)C(=O)N2[C@H]1C(=O)O` [amoxicillin], the heat of association entry at LdtMt1 [10] (ITC) and on LdtMt2 [6] (ITC) was “could not be detected” in each case.
With `COC(=O)CSC1=C(C(=O)[O-])N2C(=O)[C@H]([C@@H](C)O)[C@H]2[C@H]1C.[Na+]` [T205, sodium (4R,5S,6S)-6-((R)-1-hydroxyethyl)-3-((2-methoxy-2-oxoethyl)thio)-4-methyl-7-oxo-1-azabicyclo[3.2.0]hept-2-ene-2 carboxylate], the “reaction and covalent adduct formation” value in the assay with LdtKp is “reacted and formed covalent adducts”; in the assay with LdtPa it was “reacted and formed covalent adducts”; on LdtMab1 [5], “reacted and formed covalent adducts”; in the assay on LdtMab2 [7] it was “did not react”; in the assay on LdtCl, “reacted and formed covalent adducts”. For the same molecule, the pKd in assay [2] was 3.81.
As for `C[C@@H](O)[C@H]1C(=O)N2C(C(=O)O)=C([C@H]3CCCO3)S[C@H]12` [faropenem], the “adducts detected in competition” value in the assay on LdtKp, on LdtMt1 [11], on LdtMt2 [8], on LdtMab1 [5], in the assay on LdtMab2 [7] (setting [15]) and in the assay on LdtCl (setting [15]) was “faropenem adducts gave the only masses we could detect” in each case. Further, the “proteins reacted exclusively with the drug” value in the assay on LdtKp, at LdtMt1 [11], at LdtMt2 [8], on LdtMab1 [5], in the assay with LdtMab2 [7] (setting [14]) and with LdtCl (setting [14]) was 100% each time. Moreover, the “mass of adduct with LdtMt1” value on LdtMt1 [11] (covalently attached to C226) is given as 86 Da. The same molecule returned a Kapp on LdtMt2 [3] (setting [13]) of 49.2 ± 11.9 µM. In addition, the pKd at LdtMab2 [4] (read-out: Kd) is 5.20; on LdtMt1 [10] (ITC, 24° C., tris pH 8.0, single binding modality), 5.40; on LdtMab1 [12], 6.80. Also, at LdtMt2 [8] (UPLC-MS), the “mass of stable adduct with wild-type LdtMt2” value is “+86 Da”. Moreover, the “gross pathology of lungs (tuberculous lesions)” value with M. tuberculosis (mouse, in vivo) was “developed tuberculous lesions in the lungs but their pathology and the bacterial burden were lower compared to untreated mice”. The “M. tuberculosis burden in the lungs” value with M. tuberculosis (three weeks of treatment) is listed as “lower compared to untreated mice”. Further, in the assay with M. tuberculosis (used alone), the “survival / overall health of infected mice” value is “prolonged the life of mice”.
`C[C@H]1[C@H](NC(=O)/C(=N\OC(C)(C)C(=O)O)c2csc(N)n2)C(=O)N1S(=O)(=O)O` [aztreonam]: the heat of association result at LdtMt1 [10] (ITC) and at LdtMt2 [6] (ITC) was “could not be detected” in each case.
For `C[C@@H](O)[C@H]1C(=O)N2C(C(=O)O)=C(SCc3ccccc3)[C@H](C)[C@H]12` [T222], the “minimum inhibitory concentration (MIC90) / growth inhibition” value in assay [9] is “inhibit growth of all tested pathogens except P. aeruginosa”.
